ChEMBL document CHEMBL1201862, “PubChem BioAssay data set” (2004)
Active and inactive are the calls of the source.

How the values were obtained:
[1] = test system: H9c2; assay: cells; type: functional, cell-based; details: Rattus norvegicus, H9c2, Myocardium;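 also: confirmatory concentration-response retest of ultra-high-throughput screening hits for modulation of myocardial damage; cell death induced by hydrogen peroxide oxidative stress; compound pretreatment for 60 min then peroxide exposure for 2 h; potency is for protecting the cells against peroxide damage rather than for killing them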
[2] = target: T1, Microphthalmia-associated transcription factor (Homo sapiens, UniProt O75030); assay: reducers of TRPM1 reporter luminescence, concentration series – cell-based, SK-MEL-5, cherry-picked, set 3, MITF inhibitor project, dose response (AID 493073); type: functional;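 also: SK-MEL-5 melanoma cells with luciferase driven by the MITF target TRPM1 promoter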
T1 sequence (O75030 whole entry): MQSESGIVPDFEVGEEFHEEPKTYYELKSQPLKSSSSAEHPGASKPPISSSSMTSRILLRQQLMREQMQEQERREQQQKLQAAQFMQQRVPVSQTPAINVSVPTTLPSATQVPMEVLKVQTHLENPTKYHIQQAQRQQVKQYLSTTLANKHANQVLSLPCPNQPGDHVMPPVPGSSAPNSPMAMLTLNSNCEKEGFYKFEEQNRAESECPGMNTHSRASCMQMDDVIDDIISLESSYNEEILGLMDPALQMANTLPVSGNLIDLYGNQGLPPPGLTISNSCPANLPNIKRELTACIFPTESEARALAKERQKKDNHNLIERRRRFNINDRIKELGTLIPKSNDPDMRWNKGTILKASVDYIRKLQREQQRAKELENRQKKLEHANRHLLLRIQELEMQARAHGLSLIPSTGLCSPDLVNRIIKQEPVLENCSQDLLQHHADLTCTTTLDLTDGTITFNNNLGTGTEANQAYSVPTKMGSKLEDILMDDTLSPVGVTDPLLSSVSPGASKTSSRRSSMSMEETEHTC

[3] = target: T2, Methionyl-tRNA synthetase, putative (Trypanosoma brucei brucei, UniProt Q38C91); type: functional, Trypanosoma brucei brucei strain 927/4 GUTat10.1
T2 sequence (Q38C91 whole entry): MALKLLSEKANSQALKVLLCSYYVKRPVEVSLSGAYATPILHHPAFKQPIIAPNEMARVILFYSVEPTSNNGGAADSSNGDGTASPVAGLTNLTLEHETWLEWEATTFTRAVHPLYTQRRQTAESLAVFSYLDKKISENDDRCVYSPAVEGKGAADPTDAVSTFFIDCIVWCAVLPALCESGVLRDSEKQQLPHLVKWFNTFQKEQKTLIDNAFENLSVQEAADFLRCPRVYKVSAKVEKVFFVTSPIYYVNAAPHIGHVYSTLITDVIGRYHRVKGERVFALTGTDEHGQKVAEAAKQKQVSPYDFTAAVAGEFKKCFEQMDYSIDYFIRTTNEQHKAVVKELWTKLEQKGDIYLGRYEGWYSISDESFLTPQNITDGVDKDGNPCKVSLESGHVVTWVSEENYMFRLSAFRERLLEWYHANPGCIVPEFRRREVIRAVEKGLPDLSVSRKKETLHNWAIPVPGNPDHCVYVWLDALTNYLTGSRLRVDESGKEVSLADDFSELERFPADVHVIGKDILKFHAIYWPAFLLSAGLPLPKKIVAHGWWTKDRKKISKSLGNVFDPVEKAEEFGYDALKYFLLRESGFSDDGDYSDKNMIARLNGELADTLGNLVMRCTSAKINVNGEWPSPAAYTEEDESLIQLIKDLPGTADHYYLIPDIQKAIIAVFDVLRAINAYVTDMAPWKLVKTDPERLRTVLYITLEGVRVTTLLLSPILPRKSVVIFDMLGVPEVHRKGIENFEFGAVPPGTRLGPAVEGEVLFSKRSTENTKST

[4] = Counterscreen for inhibitors of Trypanosoma brucei methionyl tRNA synthetase (MetRS): Luminescence-based cell-based high throughput dose response assay to identify compounds that are cytotoxic to Jurkat human T lymphocyte cells.; type: functional
[5] = target: T2, Methionyl-tRNA synthetase, putative; type: functional, Trypanosoma brucei brucei strain 927/4 GUTat10.1; remark: listed apart in the source
[6] = activation of miR-122 Renilla sensor silencing – cell-based, Huh7 psiCHECK-miR122, Renilla luciferase, cherry-picked, dose response (AID 651956); type: functional;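 also: huh7 hepatoma cells stably carrying a psiCHECK-2 miR-122 sensor plasmid; renilla luciferase signal reporting endogenous miR-122 activity after 48 h compound exposure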
[7] = target: T3, DNA repair and recombination protein RAD54-like (Homo sapiens, UniProt Q92698); assay: RAD54 Holliday junction migration blockers – biochemical, fluorescence, cherry-picked samples, dose series, confirmation (AID 651657); type: functional
T3 sequence (Q92698 whole entry): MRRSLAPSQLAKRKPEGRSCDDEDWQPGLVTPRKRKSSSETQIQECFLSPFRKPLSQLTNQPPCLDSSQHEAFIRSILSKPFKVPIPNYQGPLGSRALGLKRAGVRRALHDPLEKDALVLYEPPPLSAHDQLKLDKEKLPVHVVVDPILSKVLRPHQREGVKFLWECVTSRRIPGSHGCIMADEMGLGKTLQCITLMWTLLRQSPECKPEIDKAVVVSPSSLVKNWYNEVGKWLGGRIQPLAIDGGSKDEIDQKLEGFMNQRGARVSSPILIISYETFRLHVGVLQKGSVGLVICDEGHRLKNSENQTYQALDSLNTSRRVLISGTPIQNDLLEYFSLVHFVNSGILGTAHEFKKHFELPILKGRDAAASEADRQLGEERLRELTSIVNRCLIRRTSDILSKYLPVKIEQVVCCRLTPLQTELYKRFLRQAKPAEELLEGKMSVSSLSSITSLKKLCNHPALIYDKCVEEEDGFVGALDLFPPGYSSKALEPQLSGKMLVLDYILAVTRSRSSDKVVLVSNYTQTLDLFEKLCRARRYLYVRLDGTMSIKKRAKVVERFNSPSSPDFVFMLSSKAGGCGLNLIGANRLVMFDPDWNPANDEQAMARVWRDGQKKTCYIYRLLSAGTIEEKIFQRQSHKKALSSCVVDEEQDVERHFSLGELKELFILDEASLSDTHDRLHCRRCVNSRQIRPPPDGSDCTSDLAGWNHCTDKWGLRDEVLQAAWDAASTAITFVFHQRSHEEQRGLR

[8] = test system: Streptococcus sp. 'group A'; assay: Streptococcus pyogenes SK(-)GAS viability under kanamycin – luminescence, BacTiterGlo, confirmation, counter-screen for streptokinase expression inhibitor project, dose response (AID 1900); type: functional, organism-based
[9] = test system: Streptococcus; assay: GAS UMAA2166 growth inhibition – luminescence, BacTiterGlo, counter-screen for streptokinase expression inhibitor project, dose response (AID 1915); type: functional, organism-based;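 also: potency for reduction of bacterial viability or growth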
[10] = NIH3T3 cell viability loss – ATP luminescence, mouse fibroblasts, counter-screen, dose response (AID 2010); type: functional, cell-based;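 also: cells exposed to compound for about 90 hours before reading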
[11] = Trypanosoma cruzi growth suppression in host cells – NIH3T3 host cells, beta-gal luminescence, confirmation (AID 2044); type: functional, cell-based;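 also: intracellular parasites grown in NIH/3T3 mouse fibroblasts as host cells; luminescent beta-galactosidase reporter signal from transgenic T. cruzi replicating inside host cells; inhibitors lower the luminescence signal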
[12] = test system: BJ; assay: growth inhibition of engineered Ras-driven BJ cells – cell-based, alamar blue fluorescence, cherrypicked samples, dose response (AID 2631); type: functional; details: Homo sapiens;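 also: confirmatory dose-response assay in RAS-dependent BJ fibroblasts engineered with TERT, LT and ST, with cytotoxicity read by fluorescence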
[13] = HEK-293T viability loss after treatment – luminescence, T-cell screen hits, cytotoxicity control for TCR NF-kB inhibitor project, dose response (AID 489026); type: functional, cell-based;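 also: cells exposed to compound about 14 hours before the viability readout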
[14] = alpha-synuclein stem-loop luciferase translation blockers – H4 neuroglioma cells, luminescence, confirmation (AID 1988); type: functional, cell-based
[15] = Luminescence Cell-Based Dose Response HTS to Identify Inhibitors of 5'UTR Stem-Loop Driven Prion Protein mRNA Translation in H4 Neuroglioblastoma Cells. [Related pubchem assays: 1827 (Project Summary), 1813 (Primary HTS)]; type: functional
[16] = luciferase reporter signal suppression in cells – H4 neuroglioma cells, luminescence, dose response (AID 1990); type: functional, cell-based
[17] = intracellular Trypanosoma cruzi inhibitors in host cells – cell-based, plate reader, cherry-pick samples, set 3, dose response (AID 651818); type: functional;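 also: compounds incubated with infected cells for about four days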
[18] = target: T4, Heat shock factor protein 1 (Mus musculus, UniProt P38532); assay: enhancement of HSF1-driven luciferase signal – cell-based, NIH3T3, luminescence, dose retest, confirmation (AID 435004); type: functional;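 also: stress induced by proteasome inhibitor MG132 added 30 min after compound; luciferase reporter driven by HSF1 response element in NIH3T3 cells; actives raise luminescence as potentiators of the MG132 stress response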
T4 sequence (P38532 whole entry): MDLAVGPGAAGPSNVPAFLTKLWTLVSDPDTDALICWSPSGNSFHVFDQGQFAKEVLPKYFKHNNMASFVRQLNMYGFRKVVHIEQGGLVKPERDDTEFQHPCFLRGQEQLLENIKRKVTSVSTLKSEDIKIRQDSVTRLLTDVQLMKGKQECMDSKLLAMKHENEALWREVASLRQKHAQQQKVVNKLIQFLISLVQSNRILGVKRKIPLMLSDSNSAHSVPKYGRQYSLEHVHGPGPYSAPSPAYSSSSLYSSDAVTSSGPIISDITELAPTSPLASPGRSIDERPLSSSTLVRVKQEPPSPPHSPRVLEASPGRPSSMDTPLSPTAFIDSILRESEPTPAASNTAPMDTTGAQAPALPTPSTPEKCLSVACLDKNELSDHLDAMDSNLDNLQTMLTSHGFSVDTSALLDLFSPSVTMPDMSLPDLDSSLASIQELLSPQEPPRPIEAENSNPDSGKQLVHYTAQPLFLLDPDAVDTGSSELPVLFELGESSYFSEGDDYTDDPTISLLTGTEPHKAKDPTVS

[19] = DRD fibroblast viability loss – cell-based, non-viral oncogenic, luminescence, dose response (AID 1934); type: functional; details: Homo sapiens
[20] = viability of PTEN-deleted HCT116 cells – cell-based, HCT116 PTEN knockout, dose response (AID 1047); type: functional;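 also: HCT116 colon tumor cells with PTEN knocked out; cells exposed to compound for 60 hours before readout; potency for loss of cell viability measured by luminescence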
[21] = test system: BJ; assay: cells; type: functional, cell-based; details: Homo sapiens
[22] = test system: BJ; assay: BJ-TERT fibroblast viability loss – cell-based, RAS-independent, luminescence, dose response (AID 1933); type: functional; details: Homo sapiens
[23] = viability of HCT116 lacking mutant beta-catenin – cell-based, human colon tumor, dose response (AID 1045); type: functional;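 also: HCT116 colon tumor cells with beta catenin knocked out; cells exposed to compound for 60 hours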
[24] = fluconazole-exposed Candida albicans growth modulators – fluorescence, retest, confirmation (AID 2467); type: functional, cell-based
[25] = NIH-3T3 fibroblast cytotoxicity, dose response, cytotoxicity control, cell-based, fluorescence, Alamar Blue, secondary assay (AID 2327); type: functional;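 also: NIH-3T3 mouse fibroblasts cultured with fluconazole at 8 µg/mL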
[26] = test system: BJ; assay: BJ-TERT-LT-ST fibroblast viability loss – cell-based, RAS-independent, luminescence, dose response (AID 1935); type: functional; details: Homo sapiens;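 also: BJ fibroblasts immortalized with TERT plus LT and ST oncogenes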

O=C(O)c1ccc2c(c1)S(=O)(=O)c1cc(N3CCN(c4cnccn4)CC3)ccc1C2=O
IC50 [1]: > 79 µM (inactive)

O=S1(=O)CCC(NC(=S)SCc2ccccc2Br)C1 (configuration not stated)
AC50 [2]: 25.6 µM (active)

CN(C)S(=O)(=O)c1cccc(NC(=O)c2ccc(-n3cncn3)c([N+](=O)[O-])c2)c1
IC50 [3]: 9.02 µM (active)
IC50 [4]: 83.3 µM (inactive)
IC50 [5]: 4.49 µM (active)

C[C@@H]1CN([C@@H](C)CO)S(=O)(=O)c2ccc(/C=C/c3ccccc3)cc2O[C@@H]1CN(C)C(=O)c1cccnc1
AC50 [6]: 3.93 µM (active)

COCCCn1nc2c3c(ccc2c1O)C(=O)c1ccccc1C3=O
AC50 [2]: 8.86 µM (active)

CCCC(c1nnnn1C(C)(C)CC)N(CCCO)Cc1cc2cc(C)cc(C)c2nc1O (configuration not stated)
IC50 [1]: 38.7 µM (inactive)

COc1ccc(NC(=O)CCc2nc(O)c3ccccc3n2)cc1S(=O)(=O)N1CCCCC1
IC50 [1]: > 79 µM (inactive)

CC(CCCN1CCCC1)Nc1ccnc2cc(Cl)ccc12 (configuration not stated) [Chloroquine-pyrolidinyl]
AC50 [7]: 35.7 µM (active)

CC1(C)N=C(N)N=C(N)N1c1ccc(Oc2ccc(Cl)cc2)c(Cl)c1
EC50 [8]: < 0.06 µM (active)
EC50 [9]: 0.085 µM (active)
EC50 [10]: 14.3 µM (active)
EC50 [11]: 0.177 µM (active)
EC50 [12]: > 133 µM (inactive)

CCOc1ccccc1N1CC(=O)C(c2nc3ccccc3s2)=C1N
IC50 [13]: 44.6 µM (inactive)
EC50 [14]: 4.59 µM (active)
IC50 [1]: > 79 µM (inactive)
EC50 [15]: 10.1 µM (active)
EC50 [16]: 6.86 µM (inconclusive)

C[C@@H]1CN([C@H](C)CO)C(=O)c2cccc(NC(=O)c3ccc(-c4nccs4)cc3)c2O[C@@H]1CN(C)Cc1ccc(C(=O)Nc2ccccc2N)cc1
AC50 [17]: 1.69 µM (active)

CCOC(=O)C(=Cc1cc(=O)c(OC)co1)C(=O)OCC
EC50 [18]: 15.2 µM (active)
EC50 [19]: 4.24 µM (inconclusive)
EC50 [20]: 3.55 µM (active)
EC50 [21]: 7.57 µM (inconclusive)
EC50 [22]: 8.75 µM (active)
EC50 [23]: 2.93 µM (active)
EC50 [24]: 0.367 µM (active)
EC50 [25]: 8.28 µM (inconclusive)
EC50 [12]: 0.592 µM (active)
EC50 [26]: 4.28 µM (active)

COc1ccc(S(=O)(=O)N(C)C[C@H]2Oc3c(NC(=O)Nc4ccc(C(F)(F)F)cc4)cccc3C(=O)N([C@@H](C)CO)C[C@@H]2C)cc1
AC50 [17]: 5.69 µM (active)

O=C(OC(C(=O)c1c[nH]c2ccccc12)c1ccccc1)c1cnccn1 (configuration not stated)
IC50 [3]: 59.3 µM (inactive)
IC50 [4]: 83.3 µM (inactive)
IC50 [5]: 32.3 µM (inactive)

COc1ccc(C(=O)Nc2ccc3nc(N4CCN(C)CC4)cc(C)c3c2)c(OC)c1
AC50 [7]: 32.9 µM (active)

C[C@@H]1CN([C@H](C)CO)C(=O)c2cc(NC(=O)NC3CCCCC3)ccc2O[C@H]1CN(C)Cc1ccc(Oc2ccccc2)cc1
AC50 [17]: 6.06 µM (active)

O=C(NCCCCc1ccccc1)Nc1ccc(F)cc1
IC50 [3]: 119 µM (inactive)
IC50 [4]: 83.4 µM (inactive)
IC50 [5]: 44.4 µM (inactive)

CCOC(=O)CSc1nnc(CSc2nc(O)c3ccccc3n2)n1-c1ccccc1
IC50 [1]: > 79 µM (inactive)

Cc1noc(C)c1S(=O)(=O)Nc1ccc2c(c1)CC(=O)N([C@H](C)CO)C[C@@H](C)[C@@H](CN(C)Cc1ccc(Oc3ccccc3)cc1)O2
AC50 [17]: 5.85 µM (active)
